Measurements published in the NIST ThermoML archive (doi:10.1021/je8001305).

Assay: xn = mol fraction of the nth substance listed
Settings: Liquid, Vibrating tube method

CC(C)O [propan-2-ol] + O
Settings	mass density [kg/m3]
325.1 K, 4598.7 kPa, x1 = 0.2483	877.08
325.1 K, 5089.3 kPa, x1 = 0.2483	877.36
325.1 K, 5564.2 kPa, x1 = 0.2483	877.68
325.1 K, 5954.2 kPa, x1 = 0.2483	877.93
325.1 K, 6394.3 kPa, x1 = 0.2483	878.21
325.1 K, 6808.5 kPa, x1 = 0.2483	878.48
325.1 K, 7288 kPa, x1 = 0.2483	878.8
325.1 K, 7782.7 kPa, x1 = 0.2483	879.08
325.1 K, 8079.1 kPa, x1 = 0.2483	879.34
325.1 K, 8438.9 kPa, x1 = 0.2483	879.63
325.1 K, 8828.5 kPa, x1 = 0.2483	879.87
325.1 K, 9358.9 kPa, x1 = 0.2483	880.18
325.13 K, 29.2 kPa, x1 = 0.7258	782.68
325.13 K, 83 kPa, x1 = 0.7258	782.69
325.13 K, 268.1 kPa, x1 = 0.7258	782.93
325.13 K, 528.3 kPa, x1 = 0.7258	783.18
325.13 K, 873.7 kPa, x1 = 0.7258	783.5
325.13 K, 1298.6 kPa, x1 = 0.7258	783.92
325.13 K, 1709.2 kPa, x1 = 0.7258	784.33
325.13 K, 2200.7 kPa, x1 = 0.7258	784.79
325.13 K, 2652.1 kPa, x1 = 0.7258	785.22
325.13 K, 3101.7 kPa, x1 = 0.7258	785.67
325.13 K, 3550.6 kPa, x1 = 0.7258	786.11
325.13 K, 4068.3 kPa, x1 = 0.7258	786.61
325.13 K, 4579.4 kPa, x1 = 0.7258	787.07
325.13 K, 5021.7 kPa, x1 = 0.7258	787.49
325.13 K, 5496.1 kPa, x1 = 0.7258	787.93
325.13 K, 5972.3 kPa, x1 = 0.7258	788.38
325.13 K, 6450.8 kPa, x1 = 0.7258	788.82
325.13 K, 6903 kPa, x1 = 0.7258	789.24
325.13 K, 7392 kPa, x1 = 0.7258	789.7
325.13 K, 7861.1 kPa, x1 = 0.7258	790.11
325.13 K, 8322.8 kPa, x1 = 0.7258	790.52
325.13 K, 8813.9 kPa, x1 = 0.7258	790.98
325.13 K, 9287.4 kPa, x1 = 0.7258	791.41
325.13 K, 9829.7 kPa, x1 = 0.7258	791.93
350.15 K, 88 kPa, x1 = 0.4939	789.82
350.15 K, 161.7 kPa, x1 = 0.4939	789.8
350.15 K, 387.8 kPa, x1 = 0.4939	790.1
350.15 K, 695.2 kPa, x1 = 0.4939	790.45
350.15 K, 1020.8 kPa, x1 = 0.4939	790.78
350.15 K, 1400.1 kPa, x1 = 0.4939	791.25
350.15 K, 1795.8 kPa, x1 = 0.4939	791.61
350.15 K, 2147.1 kPa, x1 = 0.4939	791.96
350.15 K, 2497.9 kPa, x1 = 0.4939	792.31
350.15 K, 2892.7 kPa, x1 = 0.4939	792.74
350.15 K, 3277.9 kPa, x1 = 0.4939	793.12
350.15 K, 3611.5 kPa, x1 = 0.4939	793.5
350.15 K, 4087.3 kPa, x1 = 0.4939	794.01
350.15 K, 4606.7 kPa, x1 = 0.4939	794.49
350.15 K, 4955.2 kPa, x1 = 0.4939	794.83
350.15 K, 5376 kPa, x1 = 0.4939	795.26
350.15 K, 5837.6 kPa, x1 = 0.4939	795.69
350.15 K, 6296.4 kPa, x1 = 0.4939	796.18
350.15 K, 6886.6 kPa, x1 = 0.4939	796.77
350.15 K, 7400.8 kPa, x1 = 0.4939	797.28
350.15 K, 7935.6 kPa, x1 = 0.4939	797.73
350.15 K, 8400.3 kPa, x1 = 0.4939	798.24
350.15 K, 9000.6 kPa, x1 = 0.4939	798.68
350.15 K, 9521.2 kPa, x1 = 0.4939	799.18
350.18 K, 84.4 kPa, x1 = 0.2483	850.19
350.18 K, 220 kPa, x1 = 0.2483	850.33
350.18 K, 511 kPa, x1 = 0.2483	850.54
350.18 K, 938.8 kPa, x1 = 0.2483	850.91
350.18 K, 1369.7 kPa, x1 = 0.2483	851.29
350.18 K, 2066.9 kPa, x1 = 0.2483	851.75
350.18 K, 2381 kPa, x1 = 0.2483	852.09
350.18 K, 2718.1 kPa, x1 = 0.2483	852.39
350.18 K, 3107.7 kPa, x1 = 0.2483	852.73
350.18 K, 3464.8 kPa, x1 = 0.2483	853.04
350.18 K, 3957.6 kPa, x1 = 0.2483	853.37
350.18 K, 4346 kPa, x1 = 0.2483	853.71
350.18 K, 4781.1 kPa, x1 = 0.2483	854.06
350.18 K, 5267.8 kPa, x1 = 0.2483	854.49
350.18 K, 5743.8 kPa, x1 = 0.2483	854.83
350.18 K, 6196.4 kPa, x1 = 0.2483	855.2
350.18 K, 6734.2 kPa, x1 = 0.2483	855.63
350.18 K, 7374.9 kPa, x1 = 0.2483	856.07
350.18 K, 7999 kPa, x1 = 0.2483	856.54
350.18 K, 8630.3 kPa, x1 = 0.2483	857.02
350.18 K, 9298.3 kPa, x1 = 0.2483	857.54
351.14 K, 93.2 kPa, x1 = 0.7258	756.9
351.14 K, 241.5 kPa, x1 = 0.7258	757.15
351.14 K, 444.5 kPa, x1 = 0.7258	757.34
351.14 K, 822.4 kPa, x1 = 0.7258	757.8
351.14 K, 1271.6 kPa, x1 = 0.7258	758.33
351.14 K, 1673.9 kPa, x1 = 0.7258	758.75
351.14 K, 2070.5 kPa, x1 = 0.7258	759.26
351.14 K, 2461.1 kPa, x1 = 0.7258	759.66
351.14 K, 2863.4 kPa, x1 = 0.7258	760.12
351.14 K, 3280.9 kPa, x1 = 0.7258	760.61
351.14 K, 4252.5 kPa, x1 = 0.7258	761.65
351.14 K, 4626.4 kPa, x1 = 0.7258	762.11
351.14 K, 5075.9 kPa, x1 = 0.7258	762.61
351.14 K, 5558.5 kPa, x1 = 0.7258	763.09
351.14 K, 5976.2 kPa, x1 = 0.7258	763.59
351.14 K, 6439.8 kPa, x1 = 0.7258	764.08
351.14 K, 6882.2 kPa, x1 = 0.7258	764.57
351.14 K, 7348.6 kPa, x1 = 0.7258	765.1
351.14 K, 7809.3 kPa, x1 = 0.7258	765.6
351.14 K, 8254 kPa, x1 = 0.7258	766.09
351.14 K, 8720.2 kPa, x1 = 0.7258	766.63
351.14 K, 9221.3 kPa, x1 = 0.7258	767.15
351.14 K, 9714.8 kPa, x1 = 0.7258	767.73
351.14 K, 10240 kPa, x1 = 0.7258	768.31
